Data: patent US20100022640A1, “ESTERS OF 2-[…] AND ANTIFUNGAL COMPOSITIONS CONTAINING THEM” (priority 2006, published 2010)
Converted amounts (≈) assume the structure as drawn.

Key:
Assay type in all cases: cell-based
[1] = system: Trichophyton metagrophytes; assay: Fungistatic endpoint in inoculated culture medium, T. metagrophytes; details: lowest concentration preventing visible growth, Bushnell-Haas medium with dextrose 10 g/L and yeast extract 0.1 g/L, pH 7.0; for MIC: Trichophyton, read-out: Fungistatic Endpoint (ppm Range) T. metagrophytes
Method: (§1) The microorganisms involved in these tests were Aspergillis niger, Candida albicans, Trichophyton metagrophytes, and Pichia pastoris. The various esters tested are listed in the following table together with their fungistatic endpoints.
(§2) Fungistatic endpoints were determined by combining the compounds at several dosage levels in a culture medium which had been freshly inoculated with spores of the test organisms. Five mL aliquots were placed in sterile culture tubes. The test compounds dissolved in the appropriate solvent were added to obtain the desired concentration of the compound in the culture medium. Following incubation at suitable conditions, the presence of growth was determined visually at each concentration of the biocide. The lowest concentration of the compound preventing growth was taken as the fungistatic endpoint. Controls containing the solvent alone at the highest dosage were made to insure that no microbial inhibition was produced by the solvent.
(§3) The culture media used in these tests was the Bushnell-Haas medium from Difco. Dextrose at 10 g/L and yeast extract at 0.1 g/L were added to obtain growth of the test organisms. The dilute solution of the Bushnell Haas media which was used in these tests contains: 0.20 g/L magnesium sulfate; 0.02 g/L calcium chloride; 1.00 g/L monopotassium phosphate; 1.00 g/L dipotassium phosphate; 1.00 g/L ammonium nitrate, and 0.05 g/L ferric chloride. The final pH of the media was 7.0±0.2 at 25° C.

Candida albicans = assay: Fungistatic endpoint in inoculated culture medium, Candida albicans; details: lowest concentration preventing visible growth, Bushnell-Haas medium with dextrose 10 g/L and yeast extract 0.1 g/L, pH 7.0; for MIC: Candida albicans, read-out: Fungistatic Endpoint (ppm Range) Candida albicans
Method: as §1, §2, §3

Pichia pastoris = assay: Fungistatic endpoint in inoculated culture medium, Pichia pastoris; details: lowest concentration preventing visible growth, Bushnell-Haas medium with dextrose 10 g/L and yeast extract 0.1 g/L, pH 7.0; for MIC: Komagataella pastoris, read-out: Fungistatic Endpoint (ppm Range) Pichia. pastoris
Method: as §1, §2, §3

Aspergillis niger = assay: Fungistatic endpoint in inoculated culture medium, Aspergillis niger; details: lowest concentration preventing visible growth, Bushnell-Haas medium with dextrose 10 g/L and yeast extract 0.1 g/L, pH 7.0; for MIC: read-out: Fungistatic Endpoint (ppm Range) Aspergillis niger
Method: as §1, §2, §3

Compound	MIC [1] [µg/mL]	MIC (Candida albicans) [µg/mL]	MIC (Pichia pastoris) [µg/mL]	MIC (Aspergillis niger) [µg/mL]	also measured
CC(=O)OCC(C#N)c1cc(OC(F)F)ccc1Cl (stereo not drawn) [Example 5, 3-acetoxy-2-(2-chloro-5-(difluoromethoxy)phenyl)propanenitrile]	< 16	< 16	–	–	–
CC(=O)OCC(C#N)c1cc(Cl)ccc1Cl (stereo not drawn) [Example 6, 3-acetoxy-2-(2,5-dichlorophenyl)propanenitrile]	< 16	< 16	–	–	–
CC(=O)OCC(C#N)c1cc(Cl)ccc1OC(F)F (stereo not drawn) [Example 7, 3-acetoxy-2-(5-chloro-2-(difluoromethoxy)phenyl)propanenitrile]	32 (≈ 110 µM)	32 (≈ 110 µM)	32 (≈ 110 µM)	–	–
CC(=O)OCC(C#N)c1ccc(Cl)cc1Cl (stereo not drawn) [Example 8, 3-acetoxy-2-(2,4-dichlorophenyl)propanenitrile]	16 to 32 (≈ 62 to 124 µM)	16 (≈ 62 µM)	< 16	–	–
CC(=O)OCC(C#N)c1ccccc1C(F)(F)F (stereo not drawn) [Example 10, 3-acetoxy-2-(2-(trifluoromethyl)phenyl)propanenitrile]	> 64	> 64	> 64	128 to 256 (≈ 498 to 995 µM)	–
CC(=O)OCC(C#N)c1ccc(Cl)cc1C (stereo not drawn) [Example 12, 3-acetoxy-2-(4-chloro-2-methylphenyl)propanenitrile]	> 64	> 64	> 64	64 to 128 (≈ 269 to 539 µM)	–
CC(=O)OCC(C#N)c1ccccc1Cl (stereo not drawn) [Example 14, 3-acetoxy-2-(2-chlorophenyl)propanenitrile]	32 (≈ 143 µM)	16 (≈ 71.5 µM)	16 (≈ 71.5 µM)	–	–
CC(=O)OCC(C#N)c1ccc(Cl)cc1 (stereo not drawn) [Example 16, 3-acetoxy-2-(4chlorophenyl)propanenitrile]	< 16	< 16	< 16	–	–
CC(=O)OC(C)C(C#N)c1ccc(Cl)cc1 (stereo not drawn) [Example 19, 3-acetoxy-2-(4-chlorophenyl)butanenitrile]	32 to 64 (≈ 135 to 269 µM)	16 to 32 (≈ 67.3 to 135 µM)	16 (≈ 67.3 µM)	–	–
COCC(OC(C)=O)C(C#N)c1ccc(Cl)cc1 (stereo not drawn) [Example 20, 3-acetoxy-2-(4-chlorophenyl)-4-methoxybutanenitrile]	–	–	–	64 to 128 (≈ 239 to 478 µM)	–
CC(=O)OCC(C#N)c1ccc(C)cc1 (stereo not drawn) [Example 21, 3-acetoxy-2-(4-methylphenyl)propanenitrile]	–	–	–	64 (≈ 315 µM)	–
CC(=O)OC(C)C(C#N)c1ccc(C)cc1 (stereo not drawn) [Example 22, 3-acetoxy-2-(4-methylphenyl)butanenitrile]	–	–	–	128 to 256 (≈ 589 to 1180 µM)	–
COCC(OC(C)=O)C(C#N)c1ccc(C)cc1 (stereo not drawn) [Example 23, 3-acetoxy-2-(4-methylphenyl)-4methoxybutanenitride]	–	–	–	–	Fungistatic Endpoint (ppm Range) Aspergillis niger (Aspergillis niger): 128-256 ppm
COc1ccc(C(C#N)COC(C)=O)cc1 (stereo not drawn) [Example 24, 3-acetoxy-2-(4-methoxyphenyl)propanenitrile]	–	–	–	128 (≈ 584 µM)	–
COc1ccc(C(C#N)C(C)OC(C)=O)cc1 (stereo not drawn) [Example 25, 3-acetoxy-2-(4-methoxyphenyl)butanentrile]	–	–	–	–	Fungistatic Endpoint (ppm Range) Aspergillis niger (Aspergillis niger): 128-256 ppm
COCC(OC(C)=O)C(C#N)c1ccc(OC)cc1 (stereo not drawn) [Example 26, 3-acetoxy-2-(4-methoxyphenyl)-4-methoxybutanenitrile]	–	–	–	128 to 256 (≈ 486 to 972 µM)	–
CCOC(=O)C(OC(C)=O)C(C#N)c1ccc(Cl)cc1 (stereo not drawn) [Example 28, ethyl 2-acetoxy-3-(4-chlorophenyl)-3-cyanopropanoate]	–	–	–	128 (≈ 433 µM)	–
N#CC(COC=O)c1cc(OC(F)F)ccc1Cl (stereo not drawn) [Example 29, 2-(2-chloro-5-(difluoromethoxy)phenyl)-3-(formyloxy)propanenitrile]	< 16	< 16	–	< 16	–
N#CC(COC=O)c1cc(Cl)ccc1Cl (stereo not drawn) [Example 30, 2-(2,5-dichlorophenyl)-3-(formyloxy)propanenitrile]	< 16	< 16	–	< 16	–
N#CC(COC(=O)Cc1ccccc1)c1cc(OC(F)F)ccc1Cl (stereo not drawn) [Example 31]	–	–	–	–	Fungistatic Endpoint (ppm Range) Pichia. pastoris (Pichia pastoris): 64 ppm; Fungistatic Endpoint (ppm Range) T. metagrophytes [1]: <16 ppm; Fungistatic Endpoint (ppm Range) Candida albicans (Candida albicans): >64 ppm
CC(=O)OCC(C#N)c1ccccc1 (stereo not drawn) [Example 32, 3-acetoxy-2-phenylpropanenitrile]	16 (≈ 84.6 µM)	> 64	16 to 32 (≈ 84.6 to 169 µM)	–	–
CC(=O)OCC(C#N)c1cccc(Oc2ccccc2)c1 (stereo not drawn) [Example 33]	–	–	–	–	Fungistatic Endpoint (ppm Range) Aspergillis niger (Aspergillis niger): 128-256 ppm
